The values that follow come from patent publication US5792767A, “Bicyclic substituted hexahydrobenz [e] isoindole alpha-1 adrenergic antagonists” (priority 1995, dated 1998).

Counter-ions that a name gives are not always drawn.

The target of this test is T1, α-1A adrenoceptor (dog prostate).
T1 construct: from tissue; host or cells: canine prostate strips
T1 sequence (P35348 whole entry): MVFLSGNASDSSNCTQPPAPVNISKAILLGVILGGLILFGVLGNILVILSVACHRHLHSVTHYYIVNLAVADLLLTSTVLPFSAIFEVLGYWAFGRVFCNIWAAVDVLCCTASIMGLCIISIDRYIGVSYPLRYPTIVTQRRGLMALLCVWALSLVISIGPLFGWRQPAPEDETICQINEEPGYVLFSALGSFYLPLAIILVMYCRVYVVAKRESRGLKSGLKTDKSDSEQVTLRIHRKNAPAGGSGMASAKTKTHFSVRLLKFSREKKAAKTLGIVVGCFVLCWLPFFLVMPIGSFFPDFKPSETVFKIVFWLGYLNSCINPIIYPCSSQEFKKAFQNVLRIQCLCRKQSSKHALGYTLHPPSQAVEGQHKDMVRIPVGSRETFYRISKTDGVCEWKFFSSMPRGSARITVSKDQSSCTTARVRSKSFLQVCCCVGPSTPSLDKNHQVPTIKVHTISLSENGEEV
The experiment in a line: Functional antagonism of phenylephrine-induced contraction of canine prostate strips. Particulars: vs phenylephrine-induced contraction, Schild plot; read-out: pA2 Dog Prostate [α-1A] (converted). The format is cell-based, dog (canine). From the text:
Canine prostate strips were used in vitro as previously described (Hieble, J. P., Boyce, A. J. and Caine, M., Fed. Proc., 45: 2609-2614 (1986)), to determine antagonist potencies against phenylephrine-induced contractions.
Functional assays indicative of pharmacologically defined α-1 adrenoceptors were used to further characterize compounds. Inhibition of phenylephrine (PE)-induced contraction of canine prostate smooth muscle can be correlated with α-1A adrenoceptor activation. […] For each of these models, agonist dose response curves were repeated against increasing concentrations of test agent to derive a Schild plot [log ([…]) against log (molarity of test agent)] to determine the pA2.
For `COc1cccc2c1CC[C@H]1CN(CCn3c(=O)[nH]c4sc(-c5ccccc5)cc4c3=O)C[C@@H]21` (relative stereo) [Example 7, 3-[2-(cis-6-Methoxy-2,3,3a,4,5,9b-hexahydro-[1H]-benz[e]isoindol-1-yl)ethyl]-6-phenyl-thieno[2,3-d]pyrimidine-2,4(1H,3H)-dione hydrochloride], the Kb is 24 nM. With `COc1cccc2c1CC[C@H]1CN(CCn3c(=O)[nH]c4cc(NC(C)=O)ccc4c3=O)C[C@@H]21` [Example 75, 3-[2-((3aR,9bR)cis-6-Methoxy-2,3,3a,4,5,9b-hexahydro-[1H]-benz[e]isoindolyl-1-yl)ethyl]-7-acetamidoquinazoline-2,4(1H,3H)-dione hydrochloride], the Kb is 0.661 nM. Regarding `COc1cccc2c1CC[C@H]1CN(CCN3Cc4ccccc4NC3=O)C[C@@H]21` [Example 44, hydrochloride], the Kb was 5.37 nM. Consider `COc1cccc2c1CC[C@H]1CN(CCn3c(=O)[nH]c4cc(C(=O)N(C)C)ccc4c3=O)C[C@@H]21` [Example 47, 3-[2-((3aR ,9bR)-cis-6-Methoxy-2,3,3a,4,5,9b-hexahydro-[1H]-benz[e]isoindol-1-yl)ethyl]-7-(N,N'-dimethyl)carbamylguinazoline-2,4(1H,3H)-dione hydrochloride], for which the Kb is 1.62 nM. Take `COc1cccc2c1CC[C@H]1CN(CCn3cnc4c(C)c(C)ccc4c3=O)C[C@@H]21` [Example 57, dihydrochloride]: the Kb was 7.24 nM. As for `COc1cccc2c1CC[C@H]1CN(CCn3cnc4c(OC)c(OC)ccc4c3=O)C[C@@H]21` [Example 58, dihydrochloride], the Kb was 1.26 nM. Consider `COC(=O)c1ccc2c(=O)n(CCN3C[C@@H]4CCc5c(OC)cccc5[C@@H]4C3)c(=O)[nH]c2c1` (relative stereo) [Example 14, hydrochloride], for which the Kb is 0.977 nM. Turning to `COc1cccc2c1CC[C@H]1CN(CCn3c(=O)[nH]c4c(C(C)C)c(OC)sc4c3=O)C[C@@H]21` [Example 65, -[2-((3aR,9bR)-cis-6-Methoxy-2,3,3a,4,5,9b-hexahydro-[1H]-benz[e]isoindol-1-yl)ethyl]-6-methoxy-7-isopropylthieno [3,2-d]pyrimidine-2,4(1H,3H)-dione hydrochloride], the Kb is 2.34 nM.

For `COc1cccc2c1CC[C@H]1CN(CCn3c(=O)[nH]c4scc(C)c4c3=O)C[C@@H]21` (relative stereo) [Example 4, hydrochloride], the Kb is 12.3 nM.

Consider `COC(=O)c1cc2c(=O)n(CCN3C[C@@H]4CCc5c(OC)cccc5[C@@H]4C3)c(=O)[nH]c2s1` [Example 59, hydrochloride], for which the Kb is 3.31 nM. In the case of `COc1cccc2c1CC[C@H]1CN(CCn3c(=O)[nH]c4cc(F)ccc4c3=O)C[C@@H]21` (relative stereo) [Example 25, 3-[2-(cis-6-Methoxy-2,3,3a,4,5,9b-hexahydro-[1H]-benz[e]isoindol-1-yl)ethyl]-7-fluoro-quinazoline-2,4(1H,3H)-dione hydrochloride], the Kb is 0.676 nM. For `COc1cc2[nH]c(=O)n(CCCCN3C[C@@H]4CCc5cccc(OC)c5[C@@H]4C3)c(=O)c2cc1OC` [Example 67, hydrochloride] the value was 4.68 nM. Turning to `COc1cccc2c1CC[C@H]1CN(CCn3c(=O)[nH]c4cccc(Cl)c4c3=O)C[C@@H]21` (relative stereo) [Example 23, hydrochloride], the Kb was 4.79 nM. `COc1cccc2c1CC[C@H]1CN(CCn3c(=O)[nH]c4ccc([N+](=O)[O-])cc4c3=O)C[C@@H]21` (relative stereo) [Example 16, hydrochloride]: the Kb was 12.3 nM.

As to `COc1ccccc1-c1csc2c(=O)n(CCN3C[C@@H]4CCc5c(OC)cccc5[C@@H]4C3)c(=O)[nH]c12` [Example 85, 3-[2-((3aR,9bR)cis-6-Methoxy-2,3,3a,4,5,9b-hexahydro-[1H]-benz[e]isoindol-1-yl)ethyl]-7-(2-methoxyphenyl)thieno[3.2-d]pyrimidine-2,4(1H,3H)-dione hydrochloride], the Kb was 2.82 nM. For `CCOC(=O)c1c[nH]c2[nH]c(=O)n(CCN3C[C@@H]4CCc5c(OC)cccc5[C@@H]4C3)c(=O)c12` [Example 61, hydrochloride], the Kb is 2.29 nM.

As to `COc1cccc2c1CC[C@H]1CN(CCn3c(=O)[nH]c4c(OC)c(OC)c(OC)cc4c3=O)C[C@@H]21` (relative stereo) [Example 18, 3-[2-(cis-6-Methoxy-2,3,3a,4,5,9b-hexahydro-[1H]-benz[e]isoindol-1-yl)ethyl]-6,7,8-trimethoxy-quinazoline-2,4(1H,3H)-dione hydrochloride], the Kb is 4.17 nM. Take `COc1cccc2c1CC[C@H]1CN(CCn3c(=O)[nH]c4scc(-c5ccccc5)c4c3=O)C[C@@H]21` (relative stereo) [Example 6, hydrochloride]: the Kb was 47.9 nM.

In the case of `CCOC(=O)c1ccc2c(=O)n(CCN3C[C@@H]4CCc5c(OC)cccc5[C@@H]4C3)c(=O)[nH]c2c1` [Example 71, hydrochloride], the Kb was 3.55 nM. On to `COc1cccc2c1CC[C@H]1CN(CCn3c(=O)oc4cc5c(cc4c3=O)OCO5)C[C@@H]21` [Example 55, hydrochloride], for which the Kb was 4.9 nM. `COc1cccc2c1CC[C@H]1CN(CCn3c(=O)[nH]c4cc(-c5ccccc5)sc4c3=O)C[C@@H]21` (relative stereo) [Example 32, hydrochloride]: the Kb is 33.9 nM.

`COc1cccc2c1CC[C@H]1CN(CCn3c(=O)[nH]c4ccc(F)cc4c3=O)C[C@@H]21` (relative stereo) [Example 15, 3-[2-(cis-6-Methoxy-2,3,3a,4,5,9b-hexahydro-[1H]-benz[e]isoindol-1-yl)ethyl]-6-fluoro-quinazoline-2,4(1H,3H)-dione hydrochloride]: the Kb was 5.37 nM. Regarding `COc1cccc2c1CC[C@H]1CN(CCn3cnc4ccccc4c3=O)C[C@@H]21` (relative stereo) [Example 34, dihydrochloride], the Kb was 1.05 nM.

In the case of `COc1cccc2c1CC[C@H]1CN(CCn3c(=O)[nH]c4cc5c(cc4c3=O)OCCO5)C[C@@H]21` [Example 38, hydrochloride], the Kb was 0.229 nM. For `COc1cccc2c1CC[C@H]1CN(CCn3c(=O)[nH]c4ncccc4c3=O)C[C@@H]21` (relative stereo) [Example 21, 3-[2-(cis-6-Methoxy-2,3 3a,4,5,9b-hexahydro-[1H]-benz[e]isoindol-1-yl)ethyl]-pyrido[2,3-d]pyrimidine-2,4(1H,3H)-dione hydrochloride], the Kb is 13.2 nM. For the compound `COC(=O)c1ccc2c(=O)n(CCN3C[C@@H]4CCc5c(OC)cccc5[C@@H]4C3)c(=O)[nH]c2c1` [Example 69, hydrochloride], the Kb is 0.575 nM.

Turning to `COc1cccc2c1CC[C@H]1CN(CCn3c(=O)[nH]c4cc(C(=O)O)ccc4c3=O)C[C@@H]21` [Example 70, hydrochloride], the Kb was 1.12 nM. For the compound `COc1cccc2c1CC[C@H]1CN(CCn3c(=O)c4ccccc4n(C)c3=O)C[C@@H]21` (relative stereo) [Example 26, hydrochloride], the Kb was 0.589 nM. On to `COc1cccc2c1CC[C@H]1CN(CCn3c(=O)[nH]c4c(Cl)c(OC)c(Cl)cc4c3=O)C[C@@H]21` [Example 48, hydrochloride], for which the Kb is 6.46 nM. For `COc1cccc2c1CC[C@H]1CN(CCn3c(=O)[nH]c4cc(Cl)ccc4c3=O)C[C@@H]21` (relative stereo) [Example 11, hydrochloride] the value was 1.2 nM; for `COc1cccc2c1CC[C@H]1CN(CCn3c(=O)[nH]c4cc(C(=O)OC(C)C)ccc4c3=O)C[C@@H]21` [Example 73, hydrochloride], 1.23 nM. The value for `COc1cccc2c1CC[C@H]1CN(CCn3c(=O)[nH]c4ccc5c(c4c3=O)OCO5)C[C@@H]21` [Example 53, hydrochloride] was 1.95 nM. Take `CCc1c(OC)sc2c(=O)n(CCN3C[C@@H]4CCc5c(OC)cccc5[C@@H]4C3)c(=O)[nH]c12` [Example 63, hydrochloride]: the Kb is 1.35 nM.

For the compound `COc1cccc2c1CC[C@H]1CN(CCn3c(=O)[nH]c4ccccc4c3=O)C[C@@H]21` [Example 79, hydrochloride], the Kb is 0.977 nM. As for `COc1ccc2c(=O)n(CCN3C[C@@H]4CCc5c(OC)cccc5[C@@H]4C3)c(=O)n(C)c2c1` [Example 50, hydrochloride], the Kb is 0.631 nM.

Regarding `COc1cccc2c1CC[C@H]1CN(CCn3c(=O)[nH]c4ncncc4c3=O)C[C@@H]21` [Example 88, 3-[2-((3aR,9bR)cis-6-Methoxy-2,3,3a,4,5,9b-hexahydro-[1H]-benz[e]isoindol-1-yl)ethyl]-p-rimidino[4,5-d]pyrimidine-2,4(1H,3H)-dione hydrochloride], the Kb is 1.86 nM.

In the case of `O=c1[nH]c2sccc2c(=O)n1CCN1C[C@@H]2CCc3c(O)cccc3[C@@H]2C1` (relative stereo) [Example 35, hydrobromide], the Kb is 87.1 nM. For the compound `COc1cccc2c1CC[C@H]1CN(CCn3c(=O)[nH]c4ccncc4c3=O)C[C@@H]21` (relative stereo) [Example 27, dihydrochloride], the Kb is 2.34 nM. For `COc1cccc2c1CC[C@H]1CN(CCn3c(=O)[nH]c4c(C)c(C)cnc4c3=O)C[C@@H]21` [Example 66, dihydrochloride] the value was 1.15 nM. As to `COc1cc2c(cc1Cl)c(=O)n(CCN1C[C@@H]3CCc4c(OC)cccc4[C@@H]3C1)c(=O)n2C` [Example 51, hydrochloride], the Kb is 14.1 nM. Consider `COc1ccc2[nH]c(=O)n(CCN3C[C@@H]4CCc5c(OC)cccc5[C@@H]4C3)c(=O)c2c1` (relative stereo) [Example 17, hydrochloride], for which the Kb is 1.15 nM.
